# Patent US8785428B2, “Vermin poison” (priority 2006, dated 2014)
# Key:
# rat = details: administered intraperitoneally; cited from earlier work
# mouse = details: cited from earlier work
# rats [1] = details: cited from earlier work
# variety of other tumours = details: cited from earlier work
# [2] = human clinical oncology studies; cited from earlier work
# [3] = dogs, packed into a gelatin capsule; cited from earlier work
# Walker tumour = details: specific rat tumour ('Walker tumour'); cited from earlier work
# rats [4] = assay: toxic effects in rats when administered via the oral route; format: in vivo
# From the text: As mentioned above, rats are particularly troublesome vermin. […] For example, Tretazicar is particularly toxic towards rats compared to other rodents. […] This feature is believed to help prevent bait-shyness.
# human cells = details: cited from earlier work
structure (smiles),measurement,setting,value
"NC(=O)c1cc(N2CC2)c([N+](=O)[O-])cc1[N+](=O)[O-] [Tretazicar, 5-(aziridin-1-yl)-2,4-dinitrobenzarnide]",LD50,rat,28 mg/kg
same,LD50,mouse,220 mg/kg
same,toxicity,rats [1],toxic to rats
same,effect on other tumours,variety of other tumours,little or no effect
same,therapeutic benefit,[2],no therapeutic benefit
same,oral bioavailability,[3],about 40%
same,effect on Walker tumour,Walker tumour,capable of eradicating
same,onset of toxic effects,rats [4],delayed
same,sensitivity of cells to the effects of the compound,human cells,insensitive
